Laboratory results taken from ChEMBL document CHEMBL4414672, “Synthesis of certain benzothieno[3,2-d]pyrimidine derivatives as a selective SIRT2 inhibitors” (Eur J Med Chem, 2020).

Columns and labels:
Type in all cases: functional
CCRF-CEM = assay: Growth inhibition of human CCRF-CEM cells at 10^-5 M incubated for 48 hrs by sulforhodamine B assay; conditions: read-out: GI
HL-60(TB) = assay: Growth inhibition of human HL-60(TB) cells at 10^-5 M incubated for 48 hrs by sulforhodamine B assay; conditions: HL-60, 48 h, read-out: GI
K562 = assay: Growth inhibition of human K562 cells at 10^-5 M incubated for 48 hrs by sulforhodamine B assay; conditions: K562, 48 h, read-out: GI
MOLT-4 = assay: Growth inhibition of human MOLT4 cells at 10^-5 M incubated for 48 hrs by sulforhodamine B assay; conditions: MOLT-4, 48 h, read-out: GI
SR = assay: Growth inhibition of human SR cells at 10^-5 M incubated for 48 hrs by sulforhodamine B assay; conditions: read-out: GI
A549 = assay: Growth inhibition of human A549/ATCC cells at 10^-5 M incubated for 48 hrs by sulforhodamine B assay; conditions: A549, 48 h, read-out: GI
EKVX = assay: Growth inhibition of human EKVX cells at 10^-5 M incubated for 48 hrs by sulforhodamine B assay; conditions: read-out: GI
HOP-62 = assay: Growth inhibition of human HOP62 cells at 10^-5 M incubated for 48 hrs by sulforhodamine B assay; conditions: HOP-62, 48 h, read-out: GI
HOP-92 = assay: Growth inhibition of human HOP92 cells at 10^-5 M incubated for 48 hrs by sulforhodamine B assay; conditions: HOP-92, 48 h, read-out: GI
NCI-H226 = assay: Growth inhibition of human NCI-H226 cells at 10^-5 M incubated for 48 hrs by sulforhodamine B assay; conditions: NCI-H226, 48 h, read-out: GI
NCI-H23 = assay: Growth inhibition of human NCI-H23 cells at 10^-5 M incubated for 48 hrs by sulforhodamine B assay; conditions: NCI-H23, 48 h, read-out: GI
NCI-H322M = assay: Growth inhibition of human NCI-H322M cells at 10^-5 M incubated for 48 hrs by sulforhodamine B assay; conditions: read-out: GI
NCI-H522 = assay: Growth inhibition of human NCI-H522 cells at 10^-5 M incubated for 48 hrs by sulforhodamine B assay; conditions: NCI-H522, 48 h, read-out: GI
HCT-116 = assay: Growth inhibition of human HCT116 cells at 10^-5 M incubated for 48 hrs by sulforhodamine B assay; conditions: HCT-116, 48 h, read-out: GI
HT-29 = assay: Growth inhibition of human HT-29 cells at 10^-5 M incubated for 48 hrs by sulforhodamine B assay; conditions: HT-29, 48 h, read-out: GI
KM12 = assay: Growth inhibition of human KM12 cells at 10^-5 M incubated for 48 hrs by sulforhodamine B assay; conditions: KM12, 48 h, read-out: GI
SW-620 = assay: Growth inhibition of human SW620 cells at 10^-5 M incubated for 48 hrs by sulforhodamine B assay; conditions: SW-620, 48 h, read-out: GI
SF-268 = assay: Growth inhibition of human SF268 cells at 10^-5 M incubated for 48 hrs by sulforhodamine B assay; conditions: SF-268, 48 h, read-out: GI
SF-295 = assay: Growth inhibition of human SF295 cells at 10^-5 M incubated for 48 hrs by sulforhodamine B assay; conditions: SF-295, 48 h, read-out: GI
Malme-3M = assay: Growth inhibition of human MALME-3M cells at 10^-5 M incubated for 48 hrs by sulforhodamine B assay; conditions: read-out: GI
M14 = assay: Growth inhibition of human M14 cells at 10^-5 M incubated for 48 hrs by sulforhodamine B assay; conditions: M14, 48 h, read-out: GI
MDA-MB-435 = assay: Growth inhibition of human MDA-MB-435 cells at 10^-5 M incubated for 48 hrs by sulforhodamine B assay; conditions: MDA-MB-435, 48 h, read-out: GI
SK-MEL-28 = assay: Growth inhibition of human SK-MEL-28 cells at 10^-5 M incubated for 48 hrs by sulforhodamine B assay; conditions: SK-MEL-28, 48 h, read-out: GI
IGROV-1 = assay: Growth inhibition of human IGROV1 cells at 10^-5 M incubated for 48 hrs by sulforhodamine B assay; conditions: IGROV-1, 48 h, read-out: GI
OVCAR-3 = assay: Growth inhibition of human OVCAR3 cells at 10^-5 M incubated for 48 hrs by sulforhodamine B assay; conditions: OVCAR-3, 48 h, read-out: GI
OVCAR-4 = assay: Growth inhibition of human OVCAR4 cells at 10^-5 M incubated for 48 hrs by sulforhodamine B assay; conditions: OVCAR-4, 48 h, read-out: GI
OVCAR-8 = assay: Growth inhibition of human OVCAR8 cells at 10^-5 M incubated for 48 hrs by sulforhodamine B assay; conditions: OVCAR-8, 48 h, read-out: GI
A498 = assay: Growth inhibition of human A498 cells at 10^-5 M incubated for 48 hrs by sulforhodamine B assay; conditions: A498, 48 h, read-out: GI
ACHN = assay: Growth inhibition of human ACHN cells at 10^-5 M incubated for 48 hrs by sulforhodamine B assay; conditions: read-out: GI
CAKI-1 = assay: Growth inhibition of human Caki1 cells at 10^-5 M incubated for 48 hrs by sulforhodamine B assay; conditions: CAKI-1, 48 h, read-out: GI
TK-10 = assay: Growth inhibition of human TK10 cells at 10^-5 M incubated for 48 hrs by sulforhodamine B assay; conditions: TK-10, 48 h, read-out: GI
UO-31 = assay: Growth inhibition of human UO31 cells at 10^-5 M incubated for 48 hrs by sulforhodamine B assay; conditions: UO-31, 48 h, read-out: GI
DU-145 = assay: Growth inhibition of human DU145 cells at 10^-5 M incubated for 48 hrs by sulforhodamine B assay; conditions: DU-145, 48 h, read-out: GI
MCF7 = assay: Growth inhibition of human MCF7 cells at 10^-5 M incubated for 48 hrs by sulforhodamine B assay; conditions: MCF7, 48 h, read-out: GI
MDA-MB-231 = assay: Growth inhibition of human MDA-MB-231 cells at 10^-5 M incubated for 48 hrs by sulforhodamine B assay; conditions: MDA-MB-231, 48 h, read-out: GI
Hs-578T = assay: Growth inhibition of human Hs 578T cells at 10^-5 M incubated for 48 hrs by sulforhodamine B assay; conditions: read-out: GI
BT-549 = assay: Growth inhibition of human BT549 cells at 10^-5 M incubated for 48 hrs by sulforhodamine B assay; conditions: BT-549, 48 h, read-out: GI
T47D = assay: Growth inhibition of human T47D cells at 10^-5 M incubated for 48 hrs by sulforhodamine B assay; conditions: read-out: GI
MDA-MB-468 = assay: Growth inhibition of human MDA-MB-468 cells at 10^-5 M incubated for 48 hrs by sulforhodamine B assay; conditions: MDA-MB-468, 48 h, read-out: GI

SMILES	inhibition of growth at 10 µM (CCRF-CEM) [%]	inhibition of growth at 10 µM (HL-60(TB)) [%]	inhibition of growth at 10 µM (K562) [%]	inhibition of growth at 10 µM (MOLT-4) [%]	inhibition of growth at 10 µM (SR) [%]	inhibition of growth at 10 µM (A549) [%]	inhibition of growth at 10 µM (EKVX) [%]	inhibition of growth at 10 µM (HOP-62) [%]	inhibition of growth at 10 µM (HOP-92) [%]	inhibition of growth at 10 µM (NCI-H226) [%]	inhibition of growth at 10 µM (NCI-H23) [%]	inhibition of growth at 10 µM (NCI-H322M) [%]	inhibition of growth at 10 µM (NCI-H522) [%]	inhibition of growth at 10 µM (HCT-116) [%]	inhibition of growth at 10 µM (HT-29) [%]	inhibition of growth at 10 µM (KM12) [%]	inhibition of growth at 10 µM (SW-620) [%]	inhibition of growth at 10 µM (SF-268) [%]	inhibition of growth at 10 µM (SF-295) [%]	inhibition of growth at 10 µM (Malme-3M) [%]	also measured
S=C1Nc2c(sc3ccc(Cl)cc23)C(c2cccc(Br)c2)N1 (stereo not drawn)	-16.1	-6.42	1.5	11.5	16.3	-7.88	12.4	15.5	-3.61	15.2	12.2	5.66	12	10.9	0.35	-2.38	-1.6	1.41	1	-1	inhibition of growth at 10 µM (M14): 6.42%; inhibition of growth at 10 µM (MDA-MB-435): -2.42%; inhibition of growth at 10 µM (SK-MEL-28): -15.7%; inhibition of growth at 10 µM (IGROV-1): 22.6%; inhibition of growth at 10 µM (OVCAR-3): -0.26%; inhibition of growth at 10 µM (OVCAR-4): 8.7%; inhibition of growth at 10 µM (OVCAR-8): 3.39%; inhibition of growth at 10 µM (A498): 31.7%; inhibition of growth at 10 µM (ACHN): 4.77%; inhibition of growth at 10 µM (CAKI-1): 19.2%; inhibition of growth at 10 µM (TK-10): -18.3%; inhibition of growth at 10 µM (UO-31): -18.3%; inhibition of growth at 10 µM (DU-145): -11.9%; inhibition of growth at 10 µM (MCF7): -11.9%; inhibition of growth at 10 µM (MDA-MB-231): 9.68%; inhibition of growth at 10 µM (Hs-578T): 4.32%; inhibition of growth at 10 µM (BT-549): -10.2%; inhibition of growth at 10 µM (T47D): 24.5%; inhibition of growth at 10 µM (MDA-MB-468): -5.67%
O=[N+]([O-])c1cccc(C2c3sc4ccc(Cl)cc4c3N=C3NN=NN32)c1 (stereo not drawn)	-11.4	-9.93	-7.43	-1.88	-7.25	9.64	8.75	0.43	12.8	11.5	1.39	-3.77	-7.9	-7.64	-2.76	-1.99	-1.74	-8.1	3.68	-4.76	inhibition of growth at 10 µM (M14): -10.9%; inhibition of growth at 10 µM (MDA-MB-435): 2.65%; inhibition of growth at 10 µM (SK-MEL-28): 3.38%; inhibition of growth at 10 µM (IGROV-1): -11.1%; inhibition of growth at 10 µM (OVCAR-3): -0.5%; inhibition of growth at 10 µM (OVCAR-4): -6.3%; inhibition of growth at 10 µM (OVCAR-8): -4.72%; inhibition of growth at 10 µM (A498): 18.1%; inhibition of growth at 10 µM (ACHN): -27.8%; inhibition of growth at 10 µM (CAKI-1): -15.7%; inhibition of growth at 10 µM (TK-10): 35.8%; inhibition of growth at 10 µM (UO-31): 14.5%; inhibition of growth at 10 µM (DU-145): 22%; inhibition of growth at 10 µM (MCF7): 15.4%; inhibition of growth at 10 µM (MDA-MB-231): -4.1%; inhibition of growth at 10 µM (Hs-578T): -11.2%; inhibition of growth at 10 µM (BT-549): 9.57%; inhibition of growth at 10 µM (T47D): -8.85%; inhibition of growth at 10 µM (MDA-MB-468): -8.85%
